Values after ≈ are worked out from the molar mass of the structure shown. “Also recorded” adds a separate entry of the source.
Columns and labels:
[1] = Dynamic solubility in FaSSIF (fasted state simulated intestinal fluids, pH=6.5), HPLC; assay type: physicochemical; conditions: for Solubility relative to existing crystalline Form 2: FaSSIF, 1 hour
Method: (§1) The HPLC method parameters for solubility test in the present disclosure are as follows:
(§2) Saturated solutions of Form I, Form II, Form III, Form VII and the existing crystalline Form 2 in SGF (Simulated gastric fluids) were prepared. Saturated solutions of Form II, Form III, Form VII, Form VIII and the existing crystalline Form 2 in FaSSIF (Fasted state simulated intestinal fluids, pH=6.5) were prepared. After equilibrated for 1 hour, concentrations of the saturated solutions were measured by High Performance Liquid Chromatography (HPLC).

[2] = Mechanical stability assessment: manual grinding, XRPD; assay type: physicochemical; conditions: ground manually for 5 minutes in mortar
Method: Solid sample of Form I, Form VI and the existing crystalline Form 2 were ground manually for 5 minutes in mortar. XRPD was applied to detect the crystalline form.

[3] = Morphology assessment by polarized light microscopy; assay type: physicochemical
Method: The existing crystalline Form 2 and Form I in the present disclosure were tested by polarized light microscopy. The PLM results of the Form 2 and Form I were shown in FIG. 48 and FIG. 49, respectively.

[4] = Particle size distribution assessment (laser particle size analyzer); assay type: physicochemical; conditions: for D10 / D50 / D90 / MV (average particle size based on volume): wet method, Isopar G
Excerpt: The result of particle size distribution (PSD) in the present disclosure was acquired by laser particle size analyzer with S3500 model from Microtrac Company. The Microtrac S3500 is equipped with a SDC (Sample Delivery Controller) sampling system. This experiment uses a wet method and the dispersion medium is Isopar G. The method and parameters of the laser particle size analyzer are as follows: [table] Certain amount of Form I, Form V, Form VIII and existing crystalline Form 2 were taken for particle size distribution test, and the results were shown in Table 29.

[5] = Dynamic solubility in SGF (simulated gastric fluids), HPLC; assay type: physicochemical; conditions: for Solubility 1 hour: Media: SGF, equilibrated for 1 hour; for Solubility relative to existing crystalline Form 2: SGF, 1 hour
Method: as §1, §2

[6] = Hygroscopicity assessment by dynamic vapor sorption (DVS); assay type: physicochemical; conditions: 25° C.; for Form change before and after DVS: XRPD
Method: Dynamic Vapor Sorption (DVS) is measured via a SMS (Surface Measurement Systems Ltd.) intrinsic DVS. Typical Parameters for DVS test are as follows: Temperature: 25° C. Gas and flow rate: N2, 200 mL/min dm/dt: 0.002%/min Relative Humidity (RH) range: 20% RH-95% RH-0% RH-95% RH Dynamic vapor sorption (DVS) was applied to test hygroscopicity of crystalline Form I with 13.8 mg of sample Form I at 25° C. The weight gains at each relative humidity were recorded in a cycle of 20%-95%-0%-95% RH. […] Dynamic vapor sorption (DVS) was applied to test hygroscopicity of Form VII with 11.5 mg of sample Form VII at 25° C. The weight gains at each relative humidity were recorded in a cycle of 0%-95%-0% RH.

[7] = Stability study: mixture of forms stirred in solvent systems with different water activity, residual solid by XRPD; assay type: physicochemical; conditions: high water activity (high humidity, ≥50% RH)
Excerpt: The mixture of existing crystalline Form 2 disclosed in CN102112483A, Form I and Form II was stirred in several solvent systems with different water activity (aw).
It should be noted that the solvent systems for different water activity (aw) include but not limit to H2O and IPA. The same conclusion could be drawn with this experiment in other solvent systems suitable for the preparation of different water activity (aw).

[8] = Stability study: storage at 25° C./60% RH and 40° C./75% RH, XRPD; assay type: physicochemical; conditions: for Stability on storage: 25° C./60% RH and 40° C./75% RH for 3 months; for Solid Form after storage: 3 months
Method: Form I, Form II, Form III and Form VI were stored under different conditions of 25° C./60% RH and 40° C./75% RH for 3 months. XRPD was applied to detect the crystalline forms. The XRPD overlay of Form I, Form II, Form III and Form VI before and after stored under above two conditions were shown in FIG. 44, FIG. 45, FIG. 46 and FIG. 47, respectively.

[9] = test system: people with type 2 diabetes; conditions: Phase 2, type 2 diabetes, including those with renal impairment; cited from earlier work
[10] = test system: type 1 diabetics; conditions: Phase 2, type 1 diabetics, compared with placebo; cited from earlier work
[11] = Table 27, head prints Media:SGF, text says FaSSIF pH=6.5, equilibrated for 1 hour

SMILES	Solubility 1 hour [1, 11] [µg/mL]	Crystallinity [2]	Mechanical stability [2]	Crystal shape (PLM) [3]	Particle size distribution (description) [4]	D10 [4] [μm]	D50 [4] [μm]	D90 [4] [μm]	MV (average particle size based on volume) [4] [μm]	Solubility 1 hour [5] [µg/mL]	Weight gain under 80% RH ([6]; cycle 20%-95%-0%-95% RH) [%]	Stability on storage [8]	Solid Form after storage ([8]; 25° C./60% RH)	Solid Form after storage ([8]; 40° C./75% RH)	Solubility relative to existing crystalline Form 2 [5] [times]	Solubility relative to existing crystalline Form 2 [1] [times]	Final form [2]	Form change before and after DVS ([6]; cycle 20%-95%-0%-95% RH)	also measured
CCOc1ccc(Cc2cc([C@@H]3O[C@H](SC)[C@@H](O)[C@H](O)[C@H]3O)ccc2Cl)cc1 [Form 2, (2S,3R,4R,5S,6R)-2-(4-chloro-3-(4-ethoxybenzyl)phenyl)-6-(methylthio)tetrahydro-2H-pyran-3,4,5-triol, reference compound]	130 (≈ 306 µM)	Decreased (Mainly	poor mechanical stability	needle-like shape	wide and bimodal	2.32	45.00	144.4	60.43	60 (≈ 141 µM)							Form 2		
CCOc1ccc(Cc2cc([C@@H]3O[C@H](SC)[C@@H](O)[C@H](O)[C@H]3O)ccc2Cl)cc1 [Form I, (2S,3R,4R,5S,6R)-2-(4-chloro-3-(4-ethoxybenzyl)phenyl)-6-(methylthio)tetrahydro-2H-pyran-3,4,5-triol]		Decreased (Slightly	better mechanical stability	rod-like shape	narrow and normal	3.34	8.97	31.63	14.48	100 (≈ 235 µM)	3.55	good stability	Form I (the middle	Form I (the bottom	1.7		no crystalline form change; also recorded: Form I	substantially unchanged; also recorded: No form change	Stability in high water activity environment [7]: more stable than Form 2
CCOc1ccc(Cc2cc([C@@H]3O[C@H](SC)[C@@H](O)[C@H](O)[C@H]3O)ccc2Cl)cc1 [Form II, (2S,3R,4R,5S,6R)-2-(4-chloro-3-(4-ethoxybenzyl)phenyl)-6-(methylthio)tetrahydro-2H-pyran-3,4,5-triol]										80 (≈ 188 µM)	2.46	good stability	Form II (the middle	Form II (the bottom				substantially unchanged; also recorded: No form change	solubility at 1 h ([1]; fasted state simulated intestinal fluid (FaSSIF), pH 6.5, fassif, thermodynamic from solid, Table 27, head prints Media:SGF, text says FaSSIF pH=6.5, equilibrated for 1 hour): 150 µg/mL (≈ 353 µM); Stability in high water activity environment [7]: more stable than Form 2
CCOc1ccc(Cc2cc([C@@H]3O[C@H](SC)[C@@H](O)[C@H](O)[C@H]3O)ccc2Cl)cc1 [Sotagliflozin, (2S,3R,4R,5S,6R)-2-(4-chloro-3-(4-ethoxybenzyl)phenyl)-6-(methylthio)tetrahydro-2H-pyran-3,4,5-triol]																			Blood pressure [9]: blood pressure improvements; Blood sugar [9]: lowering of blood sugar; Weight [9]: weight loss; Blood sugar [10]: reduction of blood sugar; Glycaemic variability [10]: improvement in glycaemic variability; Meal-time insulin dose [10]: reduced meal-time insulin dose

Further lines, with some results ahead:

Solubility 1 hour [1, 11] [µg/mL]	Crystallinity [2]	Mechanical stability [2]	Crystal shape (PLM) [3]	Particle size distribution (description) [4]	D10 [4] [μm]	D50 [4] [μm]	D90 [4] [μm]	MV (average particle size based on volume) [4] [μm]	Solubility 1 hour [5] [µg/mL]	Weight gain under 80% RH ([6]; cycle 20%-95%-0%-95% RH) [%]	Stability on storage [8]	Solid Form after storage ([8]; 25° C./60% RH)	Solid Form after storage ([8]; 40° C./75% RH)	Solubility relative to existing crystalline Form 2 [5] [times]	Solubility relative to existing crystalline Form 2 [1] [times]	SMILES	Final form [2]	Form change before and after DVS ([6]; cycle 20%-95%-0%-95% RH)	also measured
180 (≈ 424 µM)									130 (≈ 306 µM)	0.13	good stability	Form III (the middle	Form III (the bottom	2.2	1.4	CCOc1ccc(Cc2cc([C@@H]3O[C@H](SC)[C@@H](O)[C@H](O)[C@H]3O)ccc2Cl)cc1 [Form III, (2S,3R,4R,5S,6R)-2-(4-chloro-3-(4-ethoxybenzyl)phenyl)-6-(methylthio)tetrahydro-2H-pyran-3,4,5-triol]		substantially unchanged; also recorded: No form change	
				narrow and normal	4.38	18.81	72.98	32.70								CCOc1ccc(Cc2cc([C@@H]3O[C@H](SC)[C@@H](O)[C@H](O)[C@H]3O)ccc2Cl)cc1 [Form V, (2S,3R,4R,5S,6R)-2-(4-chloro-3-(4-ethoxybenzyl)phenyl)-6-(methylthio)tetrahydro-2H-pyran-3,4,5-triol]			
	Decreased (Slightly	better mechanical stability								1.80	good stability	Form VI (the middle	Form VI (the bottom			CCOc1ccc(Cc2cc([C@@H]3O[C@H](SC)[C@@H](O)[C@H](O)[C@H]3O)ccc2Cl)cc1 [Form VI, (2S,3R,4R,5S,6R)-2-(4-chloro-3-(4-ethoxybenzyl)phenyl)-6-(methylthio)tetrahydro-2H-pyran-3,4,5-triol]	no crystalline form change; also recorded: Form VI	substantially unchanged; also recorded: No form change	
200 (≈ 471 µM)			irregular massive shape						150 (≈ 353 µM)					2.5	1.5	CCOc1ccc(Cc2cc([C@@H]3O[C@H](SC)[C@@H](O)[C@H](O)[C@H]3O)ccc2Cl)cc1 [Form VII, (2S,3R,4R,5S,6R)-2-(4-chloro-3-(4-ethoxybenzyl)phenyl)-6-(methylthio)tetrahydro-2H-pyran-3,4,5-triol]			Weight gain under 80% RH ([6]; cycle 0%-95%-0% RH): 1.08%; Form change before and after DVS ([6]; cycle 0%-95%-0% RH): substantially unchanged; also recorded: No form change
180 (≈ 424 µM)				narrow and normal	7.30	36.60	112.4	51.93							1.4	CCOc1ccc(Cc2cc([C@@H]3O[C@H](SC)[C@@H](O)[C@H](O)[C@H]3O)ccc2Cl)cc1 [Form VIII, (2S,3R,4R,5S,6R)-2-(4-chloro-3-(4-ethoxybenzyl)phenyl)-6-(methylthio)tetrahydro-2H-pyran-3,4,5-triol]			Weight gain under 80% RH ([6]; cycle 0%-95%-0% RH): 0.60%; Form change before and after DVS ([6]; cycle 0%-95%-0% RH): substantially unchanged; also recorded: No form change
